# Structures can show the parent of a compound that is named as a salt.
# Biological target: human α7 nAChRs transiently expressed in Xenopus laevis oocytes (Homo sapiens (Human), UniProt P36544)
# Test: Oocyte electrophysiology screen (TEVC)
# Format: cell-based
# Details: 0.01 mM test compound, peak current relative to 0.2 mM ACh
# Description: Oocyte Electrophysiology Screen (% ACh @ 10 μM Oocyte)
# The Oocyte Electrophysiology Screen studies were performed under contract by HiQScreen Geneva, Switzerland. All experiments were carried out at human α7 nAChRs transiently expressed in Xenopus laevis oocytes using the method of cDNA expression. Currents evoked by acetylcholine or other agonist ligands were recorded using the standard two-electrode voltage-clamp configuration (TEVC). X. laevis oocytes were prepared and injected using standard procedures. Briefly, ovaries were harvested from X. laevis females that were deeply anesthetized and pithed following the animal rights rule from the Geneva canton. A small piece of ovary was isolated for immediate preparation while the remaining part was placed at 4° C. in a sterile Barth solution containing in mM: NaCl 88, KCl 1, NaHCO3 2.4, HEPES 10, MgSO4.7H2O 0.82, Ca(NO3)2.4H2O 0.33, CaCl2.6H2O 0.41, at pH 7.4, and supplemented with 20 μg/mL of kanamycin, 100 unit/mL penicillin and 100 μg/mL streptomycin. […] Cells were held at −80 mV. Data were filtered at 10 Hz, captured at 100 Hz and analyzed using proprietary data acquisition and analysis software running under Matlab (Mathworks Inc.).
# Experimental Protocol and Analysis
# After establishing a baseline transmembrane current, acetylcholine (ACh) was applied for 5 seconds at a concentration of 0.2 mM to establish a control ACh-evoked current response. Following a wash period of 90 s in OR2 medium (free of ACh), cells were then exposed for 30 s to the test compound applied at 0.01 mM. The same reference ACh test pulse was immediately given at the end of the compound exposure and again after 90 s of recovery in OR2 Medium (free of ACh or test compound). All data were determined in triplicate. The response evoked by the test compound was expressed as a percentage of that evoked by ACh: Response (% ACh)=100×(Itest/IACh) where Itest is the peak inward current measured during exposure to 0.01 mM of test compound and IACh is the peak inward current measured in the presence of ACh.
# Chain of human α7 nAChRs transiently expressed in Xenopus laevis oocytes (P36544 23-502 limits assumed): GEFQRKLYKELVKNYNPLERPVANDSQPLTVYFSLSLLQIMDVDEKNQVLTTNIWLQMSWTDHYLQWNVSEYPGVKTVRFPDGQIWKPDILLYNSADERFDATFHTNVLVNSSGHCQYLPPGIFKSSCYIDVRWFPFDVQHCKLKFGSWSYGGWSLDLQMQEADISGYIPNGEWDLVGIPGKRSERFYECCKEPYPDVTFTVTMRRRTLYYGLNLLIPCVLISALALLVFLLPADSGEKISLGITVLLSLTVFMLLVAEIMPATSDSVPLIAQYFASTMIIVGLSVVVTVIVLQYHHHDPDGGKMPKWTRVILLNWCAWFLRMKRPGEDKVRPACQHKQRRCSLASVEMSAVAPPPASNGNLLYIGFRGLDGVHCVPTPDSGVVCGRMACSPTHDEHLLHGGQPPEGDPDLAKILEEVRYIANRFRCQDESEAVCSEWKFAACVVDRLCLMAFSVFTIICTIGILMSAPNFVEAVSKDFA
row,SMILES,% ACh @ 10 μM Oocyte [% ACh]
1,"O=C(N[C@@H]1C2CCN(CC2)C12CC2)c1cnn2ncccc12 [(R)-80, (R)—N-(1′-azaspiro[cyclopropane-1,2′-bicyclo[2.2.2]octan]-3′-yl)pyrazolo[1,5-b]pyridazine-3-carboxamide hydrochloride]",0
2,"O=C(N[C@@H]1C2CCN(CC2)C12CC2)c1cc2ccc(N3CCC(F)(F)CC3)cc2s1 [(R)-100, (R)-6-(4,4-difluoropiperidin-1-yl)-N-(1′-azaspiro[cyclopropane-1,2′-bicyclo[2.2.2]octan]-3′-yl)benzo[b]thiophene-2-carboxamide hydrochloride]",1
3,"CC1(C)[C@H](NC(=O)c2ccc3cc[nH]c3c2)C2CCN1CC2 [(R)-26, (R)—N-(2,2-dimethylquinuclidin-3-yl)-1H-indole-6-carboxamide hydrochloride]",687
4,"CC1(C)[C@@H](NC(=O)c2cc3cccc(Cl)c3s2)C2CCN1CC2 [(S)-3, (S)-7-chloro-N-(2,2-dimethylquinuclidin-3-yl)benzo[b]thiophene-2-carboxamide hydrochloride]",22
5,"O=C(NC1C2CCN(CC2)C12CC2)c1cc2cccc(Cl)c2s1 (single isomer, unassigned; enantiomer2) [56b, 7-chloro-N-(1′-azaspiro[cyclopropane-1,2′-bicyclo[2.2.2]octan]-3′-yl)benzo[b]thiophene-2-carboxamide-enantiomer2]",0
6,"O=C(NC1C2CCN(CC2)C12CC2)c1ccc2ccsc2c1 (single isomer, unassigned; enantiomer2) [58b, N-(1′-azaspiro[cyclopropane-1,2′-bicyclo[2.2.2]octan]-3′-yl)benzo[b]thiophene-6-carboxamide-enantiomer2]",5
7,"COc1ccc2cc(C(=O)N[C@H]3C4CCN(CC4)C3(C)C)sc2c1 [(S)-20, (S)—N-(2,2-dimethylquinuclidin-3-yl)-6-methoxybenzo[b]thiophene-2-carboxamide hydrochloride]",5
8,"COc1ccc2cc(C(=O)N[C@@H]3C4CCN(CC4)C3(C)C)sc2c1Cl [(R)-112, (R)-7-chloro-N-(2,2-dimethylquinuclidin-3-yl)-6-methoxybenzo[b]thiophene-2-carboxamide hydrochloride]",234
9,"CC1(C)[C@@H](NC(=O)c2cc3cccc(C(F)(F)F)c3s2)C2CCN1CC2 [(S)-7, (S)—N-(2,2-dimethylquinuclidin-3-yl)-7-(trifluoromethyl)benzo[b]thiophene-2-carboxamide hydrochloride]",2
10,"Cl.Cn1c(C(=O)N[C@@H]2C3CCN(CC3)C23CC3)cc2ccccc21 [(R)-254, (R)-1-methyl-N-(1′-azaspiro[cyclopropane-1,2′-bicyclo[2.2.2]octan]-3′-yl)-1H-indole-2-carboxamide hydrochloride]",447
11,"O=C(N[C@H]1C2CCN(CC2)C12CC2)c1cc2cccnc2s1 [(S)-81, (S)—N-(1′-azaspiro[cyclopropane-1,2′-bicyclo[2.2.2]octan]-3′-yl)thieno[2,3-b]pyridine-2-carboxamide hydrochloride]",1
12,"CC1(C)[C@@H](NC(=O)c2ccc3ccsc3c2)C2CCN1CC2 [(S)-5, (S)—N-(2,2-dimethylquinuclidin-3-yl)benzo[b]thiophene-6-carboxamide hydrochloride]",9
13,"O=C(N[C@@H]1C2CCN(CC2)C12CC2)c1cc2ccc(F)c(C(F)(F)F)c2s1 [(R)-153, (R)-6-fluoro-N-(1′-azaspiro[cyclopropane-1,2′-bicyclo[2.2.2]octan]-3′-yl)-7-(trifluoromethyl)benzo[b]thiophene-2-carboxamide hydrochloride]",114
14,"CC1(C)[C@@H](NC(=O)c2cc3cc(Cl)ccc3s2)C2CCN1CC2 [(S)-13, (S)-5-chloro-N-(2,2-dimethylquinuclidin-3-yl)benzo[b]thiophene-2-carboxamide hydrochloride]",3
15,"Cc1nc2cc(C(=O)N[C@@H]3C4CCN(CC4)C3(C)C)ccc2s1 [(R)-34, (R)—N-(2,2-dimethylquinuclidin-3-yl)-2-methylbenzo[d]thiazole-5-carboxamide hydrochloride]",159
16,"Cc1ccc2sc(C(=O)N[C@H]3C4CCN(CC4)C3(C)C)cc2c1 [(S)-16, (S)—N-(2,2-dimethylquinuclidin-3-yl)-5-methylbenzo[b]thiophene-2-carboxamide hydrochloride]",2
17,"CC1(C)[C@@H](NC(=O)c2cc3c(cn2)OCCO3)C2CCN1CC2 [(S)-23, (S)—N-(2,2-dimethylquinuclidin-3-yl)-2,3-dihydro-[1,4]dioxino[2,3-c]pyridine-7-carboxamide hydrochloride]",0
18,"O=C(N[C@H]1C2CCN(CC2)C12CC2)c1cnn2ncccc12 [(S)-80, (S)—N-(1′-azaspiro[cyclopropane-1,2′-bicyclo[2.2.2]octan]-3′-yl)pyrazolo[1,5-b]pyridazine-3-carboxamide hydrochloride]",2
19,"Cc1coc2ccc(C(=O)N[C@@H]3C4CCN(CC4)C3(C)C)cc12 [(R)-40, (R)—N-(2,2-dimethylquinuclidin-3-yl)-3-methylbenzofuran-5-carboxamide hydrochloride]",517
20,"CC1(C)[C@@H](NC(=O)c2cc3ccc(C#N)cc3s2)C2CCN1CC2 [(S)-9, (S)-6-cyano-N-(2,2-dimethylquinuclidin-3-yl)benzo[b]thiophene-2-carboxamide hydrochloride]",1

# Same assay, conditions: 0.01 mM test compound, peak current relative to 0.2 mM ACh; hydrochloride
row,SMILES,% ACh @ 10 μM Oocyte [% ACh]
1,"COc1ccc2cc(C(=O)NC3C4CCN(CC4)C34CC4)sc2c1 (single isomer, unassigned; enantiomer1) [73a, 6-methoxy-N-(1′-azaspiro[cyclopropane-1,2′-bicyclo[2.2.2]octan]-3′-yl)benzo[b]thiophene-2-carboxamide-enantiomer1 hydrochloride]",1036
2,"O=C(NC1C2CCN(CC2)C12CC2)c1cc2cccc(F)c2s1 (single isomer, unassigned; enantiomer1) [57a, 7-fluoro-N-(1′-azaspiro[cyclopropane-1,2′-bicyclo[2.2.2]octan]-3′-yl)benzo[b]thiophene-2-carboxamide-enantiomer1 hydrochloride]",386
3,"COc1ccc2cc(C(=O)NC3C4CCN(CC4)C34CC4)sc2c1 (single isomer, unassigned; enantiomer2) [73b, 6-methoxy-N-(1′-azaspiro[cyclopropane-1,2′-bicyclo[2.2.2]octan]-3′-yl)benzo[b]thiophene-2-carboxamide-enantiomer2 hydrochloride]",1
4,"Nc1ccc2cc(C(=O)NC3C4CCN(CC4)C34CC4)sc2c1 (single isomer, unassigned; enantiomer1) [62a, 6-amino-N-(1′-azaspiro[cyclopropane-1,2′-bicyclo[2.2.2]octan]-3′-yl)benzo[b]thiophene-2-carboxamide-enantiomer1 hydrochloride]",35
5,"Cc1ccc2sc(C(=O)NC3C4CCN(CC4)C34CC4)cc2c1 (single isomer, unassigned; enantiomer1) [69a, 5-methyl-N-(1′-azaspiro[cyclopropane-1,2′-bicyclo[2.2.2]octan]-3′-yl)benzo[b]thiophene-2-carboxamide-enantiomer1 hydrochloride]",162
6,"O=C(NC1C2CCN(CC2)C12CC2)c1cc2cc(C(F)(F)F)ccc2s1 (single isomer, unassigned; enantiomer1) [70a, N-(1′-azaspiro[cyclopropane-1,2′-bicyclo[2.2.2]octan]-3′-yl)-5-(trifluoromethyl)benzo[b]thiophene-2-carboxamide-enantiomer1 hydrochloride]",2
7,"O=C(NC1C2CCN(CC2)C12CC2)c1cc2ccccc2s1 (single isomer, unassigned; enantiomer1) [54a, N-(1′-azaspiro[cyclopropane-1,2′-bicyclo[2.2.2]octan]-3′-yl)benzo[b]thiophene-2-carboxamide-enantiomer1 hydrochloride]",4.5
8,"CC1(C)C(NC(=O)c2cc3ccccc3s2)C2CCN1CC2 (single isomer, unassigned; enantiomer1) [1a, N-(2,2-dimethylquinuclidin-3-yl)benzo[b]thiophene-2-carboxamide-enantiomer1 hydrochloride]",1470

# Source: patent US10183938B2, “Geminal substituted quinuclidine amide compounds as agonists of α-7 nicotonic acetylcholine receptors” (AXOVANT SCIENCES GMBH, priority 2014, dated 2019)
